Where “and” joins values, the source holds several entries; their conditions need not be identical. Equal entries are not always repeated. Entries after “also recorded” stand apart in the source; their conditions may differ.
Test system: HBV DNA replication
Assay: Effects on HBV DNA replication in 2.2.15 cells in culture (intracellular HBV DNA and HBV virion DNA)
Type: cell-based, hepatitis B virus
Details: for Intracellular HBV DNA, Mono. / Intracellular HBV DNA, RI (Replicating Intermediate): 24 hrs following the 9th day of treatment; for HBV Virion DNA, Day 0: Day 0, before first dose
[1] = 30 μM + 30'Gly. (incubated 30 min with glycosidase)
[2] = 30 μM + Gly. (first group, 123AE/AF/BE/BF)
[3] = 30 μM + Gly. (second group, 123AG/AH/BG/BH)
[4] = 100 μM + 30'Gly. (incubated 30 min with glycosidase)
[5] = 300 μM + 30'Gly. (incubated 30 min with glycosidase)
[6] = 300 μM + Gly. (glucosidase, no incubation)
[7] = 1000 μM + 30'Gly. (incubated 30 min with glycosidase)

## OCC1=CC(O)C2C=COC(O[C@@H]3O[C@H](CO)[C@@H](O)[C@H](O)[C@H]3O)C12 (stereo partly drawn) [Aucubin, 1,4,5, 7α-tetrahydro-5-hydroxy-17-(hydroxymethyl)cyclopenta[c]pyran-1-yl-β-D-glucopyranose]
  inhibition of HBV DNA biosynthesis / antiviral activity (in words): exerts an antiviral activity aganist HBV infection; also recorded: marked inhibition of HBV DNA biosynthesis
[1]
  Intracellular HBV DNA, Mono.: 2.5 pg/μg cell DNA and 2.4 pg/μg cell DNA and 2.3 pg/μg cell DNA and 2.7 pg/μg cell DNA
  Intracellular HBV DNA, RI (Replicating Intermediate): 92 pg/μg cell DNA and 68 pg/μg cell DNA and 59 pg/μg cell DNA
30 μM + 30'Gly.
  HBV Virion DNA, Day 0: 61 pg/ml culture medium and 79 pg/ml culture medium and 68 pg/ml culture medium
  HBV Virion DNA, Day 3: 85 pg/ml culture medium and 94 pg/ml culture medium and 51 pg/ml culture medium and 75 pg/ml culture medium
  HBV Virion DNA, Day 6: 70 pg/ml culture medium and 62 pg/ml culture medium and 55 pg/ml culture medium and 75 pg/ml culture medium
  HBV Virion DNA, Day 9: 80 pg/ml culture medium and 48 pg/ml culture medium and 87 pg/ml culture medium and 91 pg/ml culture medium
[2]
  Intracellular HBV DNA, Mono.: 2.6 pg/μg cell DNA and 2.8 pg/μg cell DNA and 2.4 pg/μg cell DNA and 2.1 pg/μg cell DNA
  Intracellular HBV DNA, RI (Replicating Intermediate): 21 pg/μg cell DNA and 27 pg/μg cell DNA and 22 pg/μg cell DNA and 26 pg/μg cell DNA
  HBV Virion DNA, Day 0: 52 pg/ml culture medium and 76 pg/ml culture medium and 55 pg/ml culture medium
  HBV Virion DNA, Day 3: 59 pg/ml culture medium and 77 pg/ml culture medium and 51 pg/ml culture medium
  HBV Virion DNA, Day 6: 40 pg/ml culture medium and 48 pg/ml culture medium and 66 pg/ml culture medium and 59 pg/ml culture medium
  HBV Virion DNA, Day 9: 15 pg/ml culture medium and 22 pg/ml culture medium
[3]
  Intracellular HBV DNA, Mono.: 2.6 pg/μg cell DNA and 2.8 pg/μg cell DNA and 2.4 pg/μg cell DNA and 2.1 pg/μg cell DNA
  Intracellular HBV DNA, RI (Replicating Intermediate): 70 pg/μg cell DNA and 75 pg/μg cell DNA and 63 pg/μg cell DNA and 68 pg/μg cell DNA
  HBV Virion DNA, Day 0: 67 pg/ml culture medium
  HBV Virion DNA, Day 3: 94 pg/ml culture medium and 82 pg/ml culture medium and 97 pg/ml culture medium and 62 pg/ml culture medium
  HBV Virion DNA, Day 6: 58 pg/ml culture medium and 61 pg/ml culture medium and 69 pg/ml culture medium
  HBV Virion DNA, Day 9: 55 pg/ml culture medium and 72 pg/ml culture medium and 70 pg/ml culture medium and 67 pg/ml culture medium
[4]
  Intracellular HBV DNA, Mono.: 2.5 pg/μg cell DNA and 2.4 pg/μg cell DNA and 2.3 pg/μg cell DNA and 2.7 pg/μg cell DNA
  Intracellular HBV DNA, RI (Replicating Intermediate): 33 pg/μg cell DNA and 32 pg/μg cell DNA and 27 pg/μg cell DNA and 26 pg/μg cell DNA
100 μM + 30'Gly.
  HBV Virion DNA, Day 0: 55 pg/ml culture medium and 51 pg/ml culture medium and 86 pg/ml culture medium
  HBV Virion DNA, Day 3: 80 pg/ml culture medium and 49 pg/ml culture medium and 50 pg/ml culture medium and 57 pg/ml culture medium
  HBV Virion DNA, Day 6: 50 pg/ml culture medium and 66 pg/ml culture medium and 41 pg/ml culture medium and 45 pg/ml culture medium
  HBV Virion DNA, Day 9: 16 pg/ml culture medium
[5]
  Intracellular HBV DNA, Mono.: 2.4 pg/μg cell DNA and 2.6 pg/μg cell DNA and 1.9 pg/μg cell DNA and 2.0 pg/μg cell DNA
  Intracellular HBV DNA, RI (Replicating Intermediate): 11 pg/μg cell DNA and 10 pg/μg cell DNA and 7 pg/μg cell DNA and 9 pg/μg cell DNA
300 μM + 30'Gly.
  HBV Virion DNA, Day 0: 88 pg/ml culture medium and 51 pg/ml culture medium and 50 pg/ml culture medium and 59 pg/ml culture medium
  HBV Virion DNA, Day 3: 80 pg/ml culture medium and 55 pg/ml culture medium and 61 pg/ml culture medium
  HBV Virion DNA, Day 6: 54 pg/ml culture medium and 39 pg/ml culture medium and 44 pg/ml culture medium
  HBV Virion DNA, Day 9: 9 pg/ml culture medium and 7 pg/ml culture medium and 6 pg/ml culture medium and 8 pg/ml culture medium
[6]
  Intracellular HBV DNA, Mono.: 2.0 pg/μg cell DNA and 2.4 pg/μg cell DNA and 2.5 pg/μg cell DNA
  Intracellular HBV DNA, RI (Replicating Intermediate): 7 pg/μg cell DNA and 6 pg/μg cell DNA and 5 pg/μg cell DNA and 9 pg/μg cell DNA
300 μM + Gly.
  HBV Virion DNA, Day 0: 54 pg/ml culture medium and 59 pg/ml culture medium and 77 pg/ml culture medium and 66 pg/ml culture medium
  HBV Virion DNA, Day 3: 66 pg/ml culture medium and 89 pg/ml culture medium and 98 pg/ml culture medium
  HBV Virion DNA, Day 6: 54 pg/ml culture medium and 48 pg/ml culture medium and 44 pg/ml culture medium and 51 pg/ml culture medium
  HBV Virion DNA, Day 9: 9 pg/ml culture medium and 7 pg/ml culture medium and 5 pg/ml culture medium and 6 pg/ml culture medium
[7]
  Intracellular HBV DNA, Mono.: 2.3 pg/μg cell DNA and 2.0 pg/μg cell DNA and 2.1 pg/μg cell DNA
  Intracellular HBV DNA, RI (Replicating Intermediate): 3 pg/μg cell DNA and 2 pg/μg cell DNA and 4 pg/μg cell DNA
1000 μM + 30'Gly.
  HBV Virion DNA, Day 0: 84 pg/ml culture medium and 70 pg/ml culture medium and 79 pg/ml culture medium and 59 pg/ml culture medium
  HBV Virion DNA, Day 3: 67 pg/ml culture medium and 66 pg/ml culture medium and 78 pg/ml culture medium
  HBV Virion DNA, Day 6: 20 pg/ml culture medium and 17 pg/ml culture medium and 24 pg/ml culture medium

Source: US5929038A, “Pharmaceutical preparations which inhibit hepatitis B virus (HBV) replication” (Choongwae Pharmaceutical Co., Ltd., priority 1992, dated 1999)
